Paper PMC4383003, “Transfer hydrogenation catalysis in cells as a new approach to anticancer drug design” (Nature Communications, 2015)

Key:
[1] = tested on: MRC5 human fetal lung fibroblasts; test: In vitro growth inhibition assay (SRB), MRC5; assay type: cell-based
Method: (§1) A2780 human ovarian carcinoma and MRC5 human fetal lung fibroblasts were obtained from the European Collection of Cell Cultures. Both cell lines were grown in Roswell Park Memorial Institute medium (RPMI-1640) supplemented with 10% of fetal calf serum, 1% of 2 mM glutamine and 1% penicillin/streptomycin. All cells were grown as adherent monolayers at 310 K in a 5% CO2-humidified atmosphere and passaged at ca. 70–80% confluency.
The antiproliferative activity of complexes 1–8 was determined in A2780 ovarian cancer cells and MRC5 fibroblasts. Briefly, 96-well plates were used to seed 5,000 cells per well. The plates were left to pre-incubate with drug-free medium at 310 K for 48 h before adding different concentrations of the compounds to be tested. A drug exposure period of 24 h was allowed. After this, supernatants were removed by suction and each well was washed with PBS. […]
Supplementary Table 10: Antiproliferative activity of complex 2 in A2780 ovarian cancer cells and normal MRC5 human fetal lung fibroblasts, when co-administered with different concentrations of sodium formate (0 and 2 mM). All the experiments were performed as duplicates of triplicates in independent experiments and the error bars were calculated as the standard deviation from the mean. […]

[2] = tested on: A2780 human ovarian cancer cells; test: In vitro growth inhibition assay (SRB), A2780; assay type: cell-based; conditions: A2780, 24 h drug exposure, no formate
Method: as §1
The antiproliferative activity of complexes 1–8 was determined in A2780 ovarian cancer cells and MRC5 fibroblasts. Briefly, 96-well plates were used to seed 5,000 cells per well. The plates were left to pre-incubate with drug-free medium at 310 K for 48 h before adding different concentrations of the compounds to be tested. A drug exposure period of 24 h was allowed. After this, supernatants were removed by suction and each well was washed with PBS. A further 72 h were allowed for the cells to recover in drug-free medium at 310 K. The sulforhodamine B (SRB) assay was used to determine cell viability. IC50 values, as the concentration that causes 50% cell death, were determined as duplicates of triplicates in two independent sets of experiments and their s.d. were calculated.

A2780 cells [3] = test: Induction of necrosis (7-ADD flow cytometry); assay type: cell-based, human; conditions: A2780, complex 2 in presence and absence of 2 mM sodium formate, 24 h
Method: Flow cytometry analysis of necrosis in A2780 cells caused by exposure to complex 2 and sodium formate was carried out using a Apotosis/Necrosis detection kit (Abcam) according to the manufacturer’s instructions. […] Cells were harvested using trypsin and stained using the membrane-impermeable nuclear dye 7-ADD (Ex/Em 546/647 nm). After staining in the dark, cell pellets were analysed in a Becton Dickinson FACScan Flow Cytometer. For positive-necrosis controls, A2780 cells were exposed to methanol.

A2780 cells [4] = test: Mitochondrial membrane assay (JC-10 flow cytometry); assay type: cell-based, human; conditions: A2780, complex 2 and sodium formate, 24 h
Method: Analysis of the changes of mitochondrial potential in A2780 cells after exposure to complex 2 and sodium formate was carried out using the Abcam, JC-10 Mitochondrial Membrane Potential Assay kit according to the manufacturer’s instructions. Briefly, 1.0 × 10^6 cells were seeded in six-well plates and left to incubate for 24 h in drug-free medium at 310 K in a humidified atmosphere. […] Supernatants were removed by suction and each well was washed with PBS before detaching the cells using trypsin-EDTA. Staining of the samples was done in flow cytometry tubes protected from light, incubating for 30 min at room temperature. Samples were immediately analysed on a Beckton Dickinson FAC Scan with fluorescence detection. Data were processed using FlowJo software. This experiment included carbonyl cyanide m-chlorophenyl hydrazine as positive control.

9-ethylguanine = test: Binding to model nucleobase 9-ethylguanine by 1H NMR; conditions: D2O, pH* 7.2 ± 0.1, 310 K
Method: Supplementary Table 4: Binding constants for formation of 9-EtG adducts of complexes 1-4 determined by 1H NMR. The experiments were performed in D2O, pH* 7.2 ± 0.1 and 310 K. Equilibrium was reached by the time the first 1H NMR spectrum was recorded (< 10 min). […]
DNA is believed to be the main target for [(bip)Ru(en)Cl]+ (8). Due to the structural similarity of the complexes 1-5 with complex 8, their binding to DNA was […]
Interaction with nucleobases
Initially, model nucleobases, 9-ethylguanine and 9-methyladenine were reacted with complexes 1-4 in D2O, 310 K and pH* 7.2 ± 0.1. The binding of the complexes to 9-EtG or 9-MeA was monitored by 1H-NMR spectroscopy. Peaks for the 9-EtG adducts were observed by the time the first spectrum was recorded (< 5 min after mixing), […]
equilibrium was reached rapidly. The binding constants for formation of 9-EtG adducts determined by NMR were between 60 and 106 mM-1 (Supplementary Table 4). These values are in the same range as that from the ethylenediamine complex [(bip)Ru(en)Cl]+ (K9-EtG= 60.3 mM-1),2 which also binds strongly to DNA.3, 4 The high resolution mass spectrum confirmed the formation of [(η6-arene)Ru(XEn)(9-EtG)]+ (Supplementary Table 5). The interaction of complexes 1-4 with 9-MeA was also investigated, but no reaction was detected by 1H-NMR.
It is well established that N7 of guanine is the preferred nucleotide binding site for many transition metals ions. 2-8 Furthermore, strong and selective binding to N7 of 9-EtG, has been observed for [(η6-arene)Ru(en)Cl]+.3, 4 A pH* titration of […]

[5] = Transfer hydrogenation of NAD+ to 1,4-NADH with formate, followed by 1H NMR; conditions: NAD+ 2 mol equiv, formate 25 mol equiv, 310 K, pH* 7.2
Method: Complexes 1–7 were dissolved in MeOH-d4/D2O (5:1 v/v, 1.4 mM, 4 ml). Solutions of sodium formate (35 mM, 4 ml) and NAD^+ in D2O (2.8 mM, 2 ml) were also prepared and incubated at 310 K. In a typical experiment, 200-μl aliquots of each solution were added to a 5-mm NMR tube and the pH* adjusted to 7.2±0.1 (total volume 0.635 ml, final concentrations: Ru complex 0.44 mM; NAD^+ 0.88 mM; formate 11.02 mM; molar ratio 1:2:25). ^1H NMR spectra were recorded at 310 K every 162 s until the completion of the reaction.
Molar ratios of NAD^+ and NADH were determined by integrating the peaks at 9.33 and 6.96 p.p.m. (NAD^+ and 1,4-NADH, respectively). The turnover number for the reaction was calculated as follows: […]
where In is the integral of the signal at n p.p.m. and [NAD^+]0 is the concentration of NAD^+ at the start of the reaction.

Cc1ccc(C(C)C)cc1.Cc1ccc(S(=O)(=O)[N-]CCN)cc1.[Cl-].[Ru+2] [Complex 2, [(p-cym)Ru(TsEn)Cl]]
IC50 ([1]; MRC5, formate 0 mM): 48.5 ± 0.4 µM | selectivity factor ([1]; ratio MRC5 fibroblasts / A2780, no formate): 3.6±0.2 | IC50 [2]: 13.6 ± 0.6 µM | induction of necrosis (A2780 cells [3]): no cellular necrosis | changes in mitochondrial membrane potential (A2780 cells [4]): No changes in the mitochondrial membrane potential were observed | Binding constant for formation of 9-EtG adducts (9-ethylguanine): 104.9 ± 3.9 mM⁻¹ | TOF D2O/MeOH-d4 ([5]; 23% MeOH-d4/77% D2O): 2.88 ± 0.06 h⁻¹ | TOF D2O ([5]; D2O): 1.58 ± 0.04 h⁻¹
